Laboratory results: patent US20110200535A1, “DAA-PYRIDINE AS PERIPHERAL BENZODIAZEPINE RECEPTOR LIGAND FOR DIAGNOSTIC IMAGING AND PHARMACEUTICAL TREATMENT” (BAYER SCHERING PHARMA AKTIENGESELLSCHAFT, priority 2008, published 2011)
Where “and” joins values, the source holds several entries; their conditions need not be identical. Identical values can stand only once.

Tests used:
Assay type in all cases: in vivo
[1] = Biodistribution of [^18F]-radioactivity in healthy male NMRI mice after intravenous injection (gamma counter); details: for [^18F]-radioactivity in adrenals / [^18F]-radioactivity in blood / [^18F]-radioactivity in bone / [^18F]-radioactivity in brain (brain uptake) / [^18F]-radioactivity in fat / [^18F]-radioactivity in heart / [^18F]-radioactivity in intestine / [^18F]-radioactivity in kidney / [^18F]-radioactivity in liver / [^18F]-radioactivity in lung / [^18F]-radioactivity in muscle / [^18F]-radioactivity in pancreas / [^18F]-radioactivity in skin / [^18F]-radioactivity in spleen / [^18F]-radioactivity in stomach / [^18F]-radioactivity in testes / [^18F]-radioactivity in thyroid: normal mice, i.v., decay corrected
Description: (§1) The biodistribution of [^18F]-2d and [^18F]-5d was investigated in healthy male NMRI mice (28.3-35.6 g body weight, n=3 animals per time point) at 2, 5, 30, 60 and 180/240 min after intravenous injection of 0.264 MBq [^18F]-2d and 0.268 MBq [^18F]-5d per animal, respectively. Until the indicated time points urine and faeces were quantitatively collected. At the respective time points the mice were sacrificed and the tissues were removed. [^18F]-radioactivity was analyzed in a gamma counter (Tab. 1.1, 2.1 and 1.2, 2.2).

[2] = Excretion of [^18F]-radioactivity via urine and faeces in normal mice (gamma counter); details: i.v., decay corrected
Description: as §1

[3] = molecular target: T1, peripheral benzodiazepine receptor (PBR) (Rattus norvegicus, UniProt P16257); experiment: Ex vivo autoradiography of brain sections, rat kainic acid induced epilepsy model; details: for Hipp/Cereb ratio (signal-to-background ratio, hippocampus/cerebellum): rat kainic acid model, 30 min ex vivo autoradiography
T1 construct: from tissue; host or cells: rat brain (hippocampus, cerebellum) after i.v. tracer injection
Description: Using a rat kainic acid induced epilepsy model and respective sham controls the accumulation of [^18F]-2d and [^18F]-5d was visualized ex vivo. In brief, epilepsy was induced in rats by injecting kainic acid i.p. At day eight after the start of the kainic acid treatment [^18F]-2d and [^18F]-5d were injected into the tail vein of the rats and their sham treated controls (PBS instead of kainic acid) at a dose of 25.8-35.8 MBq (approximately 1.0 μg) per rat. Thirty minutes after intravenous injection the rats were sacrificed, the brains were taken out, snap frozen and sliced transversally in a cryostat. The slices were exposed to PhosphoImager plates over night. The resulting autoradiographic signals were analyzed qualitatively and quantitatively (FIG. 2.1 A and C, 2.2 A and C). […] To determine the specificity of the [^18F]-2d and [^18F]-5d binding, kainic acid treated rats were co-injected with [^19F]-2e and [^19F]-5e, respectively.
The autoradiographic signals were quantified. The signal intensity in a hippocampal region of interest (ROI) was measured and compared to a ROI in the cerebellum, that was used as reference region.

## COc1ccc(OCC[18F])c(CN(C(C)=O)c2cccnc2Oc2cccc(C)c2C)c1 [[^18F]-5d, N-[2-(2,3-dimethylphenoxy)pyridin-3-yl]-N-[2-(2-[^18F]fluoroethoxy)-5-methoxybenzyl]acetamide]
[1]; mice, 30 min p.i.
  Initial elimination of the radioactivity from the brain: ca. 73%
[1]; mice, brain, 2 min to 30 min
  Elimination from mouse brain, 2 min/30 min ratio of brain uptake (% ID/g): 3.7
[1]; 2 min
  [^18F]-radioactivity in adrenals: 9.90 ± 1.17 % injected dose/g
  [^18F]-radioactivity in blood: 2.75 ± 0.40 % injected dose/g
  [^18F]-radioactivity in bone: 1.02 ± 0.31 % injected dose/g
  [^18F]-radioactivity in brain (brain uptake): 1.61±0.23 % injected dose/g
  [^18F]-radioactivity in fat: 0.24 ± 0.08 % injected dose/g
  [^18F]-radioactivity in heart: 17.21 ± 1.43 % injected dose/g
  [^18F]-radioactivity in intestine: 0.77 ± 0.24 % injected dose/g
  [^18F]-radioactivity in kidney: 6.15 ± 1.95 % injected dose/g
  [^18F]-radioactivity in liver: 1.51 ± 0.38 % injected dose/g
  [^18F]-radioactivity in lung: 65.87 ± 15.87 % injected dose/g
  [^18F]-radioactivity in muscle: 1.23 ± 0.27 % injected dose/g
  [^18F]-radioactivity in pancreas: 1.54 ± 0.34 % injected dose/g
  [^18F]-radioactivity in skin: 0.52 ± 0.02 % injected dose/g
  [^18F]-radioactivity in spleen: 1.40 ± 0.06 % injected dose/g
  [^18F]-radioactivity in stomach: 2.03 ± 1.05 % injected dose/g
  [^18F]-radioactivity in testes: 0.50 ± 0.01 % injected dose/g
  [^18F]-radioactivity in thyroid: 3.97 ± 1.12 % injected dose/g
[1]; 5 min
  [^18F]-radioactivity in adrenals: 28.94 ± 11.26 % injected dose/g
  [^18F]-radioactivity in blood: 2.13 ± 0.23 % injected dose/g
  [^18F]-radioactivity in bone: 1.41 ± 0.19 % injected dose/g
  [^18F]-radioactivity in brain (brain uptake): 1.13 ± 0.22 % injected dose/g
  [^18F]-radioactivity in fat: 0.24 ± 0.03 % injected dose/g
  [^18F]-radioactivity in heart: 18.45 ± 1.69 % injected dose/g
  [^18F]-radioactivity in intestine: 1.42 ± 0.02 % injected dose/g
  [^18F]-radioactivity in kidney: 8.53 ± 1.50 % injected dose/g
  [^18F]-radioactivity in liver: 2.19 ± 31^ % injected dose/g
  [^18F]-radioactivity in lung: 45.38 ± 5.54 % injected dose/g
  [^18F]-radioactivity in muscle: 1.89 ± 0.32 % injected dose/g
  [^18F]-radioactivity in pancreas: 2.37 ± 0.56 % injected dose/g
  [^18F]-radioactivity in skin: 0.79 ± 0.07 % injected dose/g
  [^18F]-radioactivity in spleen: 3.25 ± 0.15 % injected dose/g
  [^18F]-radioactivity in stomach: 3.04 ± 0.49 % injected dose/g
  [^18F]-radioactivity in testes: 0.71 ± 0.10 % injected dose/g
  [^18F]-radioactivity in thyroid: 4.25 ± 0.79 % injected dose/g
[1]; 30 min
  [^18F]-radioactivity in adrenals: 12.31 ± 0.43 % injected dose/g
  [^18F]-radioactivity in blood: 0.80 ± 0.17 % injected dose/g
  [^18F]-radioactivity in bone: 2.05 ± 0.08 % injected dose/g
  [^18F]-radioactivity in brain (brain uptake): 0.44±0.15 % injected dose/g and 0.44 ± 0.51 % injected dose/g
  [^18F]-radioactivity in fat: 0.61 ± 0.26 % injected dose/g
  [^18F]-radioactivity in heart: 7.53 ± 2.41 % injected dose/g
  [^18F]-radioactivity in intestine: 2.48 ± 0.78 % injected dose/g
  [^18F]-radioactivity in kidney: 9.53 ± 0.82 % injected dose/g
  [^18F]-radioactivity in liver: 3.52 ± 1.35 % injected dose/g
  [^18F]-radioactivity in lung: 9.83 ± 1.66 % injected dose/g
  [^18F]-radioactivity in muscle: 2.14 ± 0.31 % injected dose/g
  [^18F]-radioactivity in pancreas: 2.46 ± 0.19 % injected dose/g
  [^18F]-radioactivity in skin: 1.23 ± 0.21 % injected dose/g
  [^18F]-radioactivity in spleen: 5.68 ± 0.59 % injected dose/g
  [^18F]-radioactivity in stomach: 3.01 ± 0.70 % injected dose/g
  [^18F]-radioactivity in testes: 0.75 ± 0.19 % injected dose/g
  [^18F]-radioactivity in thyroid: 3.81 ± 0.42 % injected dose/g
[1]; 60 min
  [^18F]-radioactivity in adrenals: 16.66 ± 2.86 % injected dose/g
  [^18F]-radioactivity in blood: 0.75 ± 0.01 % injected dose/g
  [^18F]-radioactivity in bone: 1.69 ± 0.26 % injected dose/g
  [^18F]-radioactivity in brain (brain uptake): 0.34 ± 0.06 % injected dose/g
  [^18F]-radioactivity in fat: 3.27 ± 0.30 % injected dose/g
  [^18F]-radioactivity in heart: 5.76 ± 0.87 % injected dose/g
  [^18F]-radioactivity in intestine: 3.31 ± 0.16 % injected dose/g
  [^18F]-radioactivity in kidney: 9.57 ± 0.76 % injected dose/g
  [^18F]-radioactivity in liver: 2.35 ± 0.35 % injected dose/g
  [^18F]-radioactivity in lung: 6.46 ± 1.07 % injected dose/g
  [^18F]-radioactivity in muscle: 2.13 ± 0.21 % injected dose/g
  [^18F]-radioactivity in pancreas: 2.34 ± 0.48 % injected dose/g
  [^18F]-radioactivity in skin: 1.39 ± 0.10 % injected dose/g
  [^18F]-radioactivity in spleen: 5.79 ± 0.10 % injected dose/g
  [^18F]-radioactivity in stomach: 4.21 ± 0.25 % injected dose/g
  [^18F]-radioactivity in testes: 0.90 ± 0.10 % injected dose/g
  [^18F]-radioactivity in thyroid: 3.21 ± 0.75 % injected dose/g
[1]; 240 min
  [^18F]-radioactivity in adrenals: 13.93 ± 6.07 % injected dose/g
  [^18F]-radioactivity in blood: 0.60 ± 0.07 % injected dose/g
  [^18F]-radioactivity in bone: 2.6 % injected dose/g and 2.59 ± 0.56 % injected dose/g
  [^18F]-radioactivity in brain (brain uptake): 0.32 ± 0.08 % injected dose/g
  [^18F]-radioactivity in fat: 0.86 ± 0.10 % injected dose/g
  [^18F]-radioactivity in heart: 2.21 ± 0.24 % injected dose/g
  [^18F]-radioactivity in intestine: 3.96 ± 0.16 % injected dose/g
  [^18F]-radioactivity in kidney: 6.84 ± 0.69 % injected dose/g
  [^18F]-radioactivity in liver: 1.76 ± 0.23 % injected dose/g
  [^18F]-radioactivity in lung: 3.42 ± 0.73 % injected dose/g
  [^18F]-radioactivity in muscle: 1.32 ± 0.11 % injected dose/g
  [^18F]-radioactivity in pancreas: 1.41 ± 0.22 % injected dose/g
  [^18F]-radioactivity in skin: 1.47 ± 0.06 % injected dose/g
  [^18F]-radioactivity in spleen: 3.02 ± 0.25 % injected dose/g
  [^18F]-radioactivity in stomach: 3.43 ± 0.54 % injected dose/g
  [^18F]-radioactivity in testes: 0.94 ± 0.12 % injected dose/g
  [^18F]-radioactivity in thyroid: 2.50 ± 0.15 % injected dose/g
[2]; 2 min
  Excretion of [^18F]-radioactivity via faeces: 0.00 ± 0.00 % injected dose
  Excretion of [^18F]-radioactivity via urine: 0.02 ± 0.02 % injected dose
[2]; 5 min
  Excretion of [^18F]-radioactivity via faeces: 0.00 ± 0.00 % injected dose
  Excretion of [^18F]-radioactivity via urine: 0.04 ± 0.00 % injected dose
[2]; 30 min
  Excretion of [^18F]-radioactivity via faeces: 0.03 ± 0.02 % injected dose
  Excretion of [^18F]-radioactivity via urine: 2.33 ± 1.20 % injected dose
[2]; 60 min
  Excretion of [^18F]-radioactivity via faeces: 0.04 ± 0.02 % injected dose
  Excretion of [^18F]-radioactivity via urine: 4.21 ± 0.97 % injected dose
[2]; 240 min
  Excretion of [^18F]-radioactivity via faeces: 0.74±1.01 % injected dose
  Excretion of [^18F]-radioactivity via urine: 15.24±1.25 % injected dose
[3]; kainic acid treated rats, co-injected with [^19F]-2e and [^19F]-5e, respectively
  Specificity of binding: autoradiographic signal on co-injection of the corresponding [^19F] compound: significantly reduced autoradiographic signal
[3]
  Hipp/Cereb ratio (signal-to-background ratio, hippocampus/cerebellum): 3.0 ± 0.9
[3]; listed as 5d
  Hipp/Cereb ratio (signal-to-background ratio, hippocampus/cerebellum): 3.0±0.9
